# In patent US20120101106A1, “Tetrahydronapthyridine Orexin Receptor Antagonists” (priority 2009, published 2012):
# pKi: −log10 of the molar value.
# Target: T1, OX2R (Homo sapiens, UniProt O43614)
# T1 construct: expressed in transfected cells; host or cells: CHO cells (membranes)
# T1 sequence (O43614 1-444): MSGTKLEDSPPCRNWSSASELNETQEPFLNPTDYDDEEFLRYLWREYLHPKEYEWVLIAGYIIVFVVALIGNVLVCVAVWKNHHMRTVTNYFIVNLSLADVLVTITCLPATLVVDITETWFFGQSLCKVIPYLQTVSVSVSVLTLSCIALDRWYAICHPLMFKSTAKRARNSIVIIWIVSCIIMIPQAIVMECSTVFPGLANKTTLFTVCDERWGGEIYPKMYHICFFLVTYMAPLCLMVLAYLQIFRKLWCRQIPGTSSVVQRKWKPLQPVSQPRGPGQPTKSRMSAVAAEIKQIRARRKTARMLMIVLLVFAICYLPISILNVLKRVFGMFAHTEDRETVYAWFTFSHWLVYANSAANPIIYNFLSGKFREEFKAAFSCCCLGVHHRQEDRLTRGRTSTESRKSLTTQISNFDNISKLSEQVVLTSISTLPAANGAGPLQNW
# Assay: radioligand binding assay, membranes from CHO cells expressing the OX2 receptor
# Conditions: CHO cell membranes
# Procedure: The utility of the compounds in accordance with the present invention as orexin receptor OX1R and/or OX2R antagonists may be readily determined without undue experimentation by methodology well known in the art, including the “FLIPR Ca^2+ Flux Assay” (Okumura et al., Biochem. Biophys. Res. Comm. 280:976-981, 2001). In a typical experiment the OX1 and OX2 receptor antagonistic activity of the compounds of the present invention was determined in accordance with the following experimental method. For intracellular calcium measurements, Chinese hamster ovary (CHO) cells expressing the rat orexin-1 receptor or the human orexin-2 receptor, are grown in Iscove's modified DMEM containing 2 mM L-glutamine, […], 1% hypoxanthine-thymidine supplement, 100 U/ml penicillin, 100 ug/ml streptomycin and 10% heat-inactivated fetal calf serum (FCS). The cells are seeded at 20,000 cells/well into Becton-Dickinson black 384-well clear bottom sterile plates coated with poly-D-lysine. All reagents were from GIBCO-Invitrogen Corp. The seeded plates are incubated overnight at 37° C. and 5% CO2. Ala-6,12 human orexin-A as the agonist is prepared as a 1 mM stock solution in 1% bovine serum albumin (BSA) and diluted in assay buffer (HBSS containing 20 mM HEPES, 0.1% BSA and 2.5 mM probenecid, pH7.4) for use in the assay at a final concentration of 70 pM. Test compounds are prepared as 10 mM stock solution in DMSO, then diluted in 384-well plates, first in DMSO, then assay buffer. On the day of the assay, cells are washed 3 times with 100 ul assay buffer and then incubated for 60 min (37° C., 5% CO2) in 60 ul assay buffer containing 1 uM Fluo-4AM ester, 0.02% pluronic acid, and 1% BSA. The dye loading solution is then aspirated and cells are washed 3 times with 100 ul assay buffer. 30 ul of that same buffer is left in each well. Within the Fluorescent Imaging Plate Reader (FLIPR, Molecular Devices), test compounds are added to the plate in a volume of 25 ul, incubated for 5 min and finally 25 ul of agonist is added. Fluorescence is measured for each well at 1 second intervals for 5 minutes and the height of each fluorescence peak is compared to the height of the fluorescence peak induced by 70 pM Ala-6,12 orexin-A with buffer in place of antagonist. For each antagonist, IC50 value (the concentration of compound needed to inhibit 50% of the agonist response) is determined. Alternatively, compound potency can be assessed by a radioligand binding assay (described in Bergman et. al. Bioorg. Med. Chem. Lett. 2008, 18, 1425-1430) in which the inhibition constant (Ki) is determined in membranes prepared from CHO cells expressing either the OX1 or OX2 receptor. The intrinsic orexin receptor antagonist activity of a compound which may be used in the present invention may be determined by these assays.
row,pKi,SMILES
1,9.72,"CNC(=O)[C@@H](c1ccccc1)N1CCc2nc(OC)c(OC)cc2[C@@H]1CCc1ccc(C(F)(F)F)cc1 [Compound 1-6, (2R)-2-[(5S)-2,3-dimethoxy-5-{-2-[4-(trifluoromethyl)phenyl]ethyl}-7,8-dihydro-1,6-naphthyridin-6(5H)-yl]-N-methyl-2-phenylethanamide]"
2,9.59,"CNC(=O)[C@@H](c1ccccc1)N1CCc2nc(OC)c(OC)cc2[C@@H]1CCc1ccc(Cl)cc1 [Compound 1-7, (2R)-2-[(5S)-5-[2-(4-chlorophenyl)-ethyl]-2,3-dimethoxy-7,8-dihydro-1,6-naphthyridin-6(5H)-yl]-N-methyl-2-phenylethanamide]"
3,9.00,"CNC(=O)[C@@H](c1ccccc1)N1CCc2nc(OC)c(OC)cc2[C@@H]1CCc1ccc(F)cc1F [Compound 1-8, (2R)-2-[(5S)-5-[2-(2,4-difluoro-phenyl)ethyl]-2,3-dimethoxy-7,8-dihydro-1,6-naphthyridin-6(5H)-yl]-N-methyl-2-phenylethanamide]"
4,9.74,"CNC(=O)[C@@H](c1ccccc1)N1CCc2nc(OC)c(OC)cc2[C@@H]1CCc1ccc(C)cc1 [Compound 1-9, (2R)-2-[(5S)-2,3-dimethoxy-5-[2-(4-methylphenyl)ethyl]-7,8-dihydro-1,6-naphthyridin-6(5H)-yl]-N-methyl-2-phenylethanamide]"
5,9.77,"CNC(=O)[C@@H](c1ccccc1)N1CCc2cc(OC)c(OC)nc2[C@@H]1CCc1ccc(C(F)(F)F)cc1 [Compound 1-10, (2R)-2-[(8S)-2,3-dimethoxy-8-{2-[4-(trifluoromethyl)phenyl]ethyl}-5,8-dihydro-1,7-naphthyridin-7(6H)-yl]-N-methyl-2-phenylethanamide]"
6,9.36,"CNC(=O)[C@@H](c1ccccc1)N1CCc2nc(OC)c(OC)nc2[C@@H]1CCc1ccc(C(F)(F)F)cc1 [Compound 1-11, (2R)-2-[(5S)-2,3-dimethoxy-5-{2-[4-(trifluoromethyl)phenyl]ethyl}-7,8-dihydropyrido[3,4-b]pyrazin-6(5H)-yl]-N-methyl-2-phenylethanamide]"
